From the supplement of paper PMC10307832

Key:
Assay in all cases: relative viability (nuclei count vs DMSO), 5 days (fraction); higher = more cells survive
Tivantinib + OSI-027 = compound: O=C1NC(=O)[C@@H](c2cn3c4c(cccc24)CCC3)[C@@H]1c1c[nH]c2ccccc12 [Tivantinib] + COc1cccc2cc(-c3nc([C@H]4CC[C@H](C(=O)O)CC4)n4ncnc(N)c34)[nH]c12 [OSI-027] (partner 0.5 µM)
Method in brief: (§1)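 A single step with final 0.05% Triton X-100, 1% formaldehyde and 1 ug/ml Hoechst fixed the cells and stained nuclei 5 days after treatment. Lung cancer cell lines in 1536-well plates had been treated by pin tool the day after seeding with one drug alone or a fixed anchor-drug dose plus five library-drug doses (not always all listed) in √10 steps, and nuclei were counted on 4× images. Relative viability is the ratio of nuclei in treated wells to nuclei in vehicle wells, taken as the median of duplicate plates.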

Tivantinib + Linsitinib = compound: O=C1NC(=O)[C@@H](c2cn3c4c(cccc24)CCC3)[C@@H]1c1c[nH]c2ccccc12 [Tivantinib] + C[C@]1(O)C[C@@H](c2nc(-c3ccc4ccc(-c5ccccc5)nc4c3)c3c(N)nccn32)C1 [Linsitinib] (partner 1 µM)
Method in brief: as §1

Tivantinib + Alpelisib = compound: O=C1NC(=O)[C@@H](c2cn3c4c(cccc24)CCC3)[C@@H]1c1c[nH]c2ccccc12 [Tivantinib] + Cc1nc(NC(=O)N2CCC[C@H]2C(N)=O)sc1-c1ccnc(C(C)(C)C(F)(F)F)c1 [Alpelisib] (partner 2 µM)
Method in brief: as §1

Tivantinib + Vorinostat = compound: O=C1NC(=O)[C@@H](c2cn3c4c(cccc24)CCC3)[C@@H]1c1c[nH]c2ccccc12 [Tivantinib] + O=C(CCCCCCC(=O)Nc1ccccc1)NO [Vorinostat] (partner 1 µM)
Method in brief: as §1

Row | Cell Line | relative viability (Tivantinib + OSI-027; first compound 0.01 µM) | relative viability (Tivantinib + OSI-027; first compound 0.03162 µM) | relative viability (Tivantinib + OSI-027; first compound 0.1 µM) | relative viability (Tivantinib + OSI-027; first compound 0.3162 µM) | relative viability (Tivantinib + Linsitinib; first compound 0.01 µM) | relative viability (Tivantinib + Linsitinib; first compound 0.03162 µM) | relative viability (Tivantinib + Linsitinib; first compound 0.1 µM) | relative viability (Tivantinib + Linsitinib; first compound 0.3162 µM) | relative viability (Tivantinib + Alpelisib; first compound 0.01 µM) | relative viability (Tivantinib + Alpelisib; first compound 0.03162 µM) | relative viability (Tivantinib + Alpelisib; first compound 0.1 µM) | relative viability (Tivantinib + Alpelisib; first compound 0.3162 µM) | relative viability (Tivantinib + Vorinostat; first compound 0.01 µM) | relative viability (Tivantinib + Vorinostat; first compound 0.03162 µM) | relative viability (Tivantinib + Vorinostat; first compound 0.1 µM) | relative viability (Tivantinib + Vorinostat; first compound 0.3162 µM)
1 | HCC-15 | 0.76 | 0.53 | 0.614 | 0.7 | 0.89 | 0.796 | 0.857 | 0.911 | 0.942 | 0.832 | 0.799 | 0.996 | 0.827 | 0.82 | 0.795 | 0.793
2 | NCI-H2126 | 0.639 | 0.63 | 0.658 | 0.549 | 0.713 | 0.677 | 0.671 | 0.578 | 0.745 | 0.739 | 0.749 | 0.684 | 0.723 | 0.482 | 0.772 | 0.512
3 | NCI-H1915 | 0.626 | 0.543 | 0.648 | 0.715 | 1.1 | 1.14 | 1.12 | 1.08 | 1.07 | 1.01 | 1.09 | 1.04 | 0.492 | 0.496 | 0.49 | 0.568
4 | NCI-H661 | 0.72 | 0.665 | 0.755 | 0.396 | 0.658 | 0.442 | 0.628 |  | 0.404 | 0.86 | 0.72 |  | 0.849 | 0.792 | 0.752 | 0.659
5 | COR-L23 | 0.783 | 0.7 | 0.787 | 0.919 | 0.914 | 0.884 | 0.862 | 0.848 | 0.864 | 0.754 | 0.671 | 0.905 | 0.528 | 0.509 | 0.426 | 0.608
6 | COR-L 105 | 0.838 | 0.378 | 0.581 | 0.363 | 0.824 | 0.695 | 0.985 | 0.578 | 1 | 0.921 | 0.783 | 0.95 | 0.89 | 0.786 | 0.722 | 0.771
7 | LK-2 | 0.225 |  | 0.219 | 0.243 | 0.816 |  | 0.497 | 0.355 | 1.24 |  | 0.58 | 0.668 | 0.219 | 0.34 | 0.217 | 0.311
8 | 201T | 0.962 | 0.718 | 0.665 | 0.74 | 1.03 | 1.03 | 0.971 | 0.954 | 0.982 | 1 | 0.999 | 0.981 | 0.894 | 0.835 | 0.898 | 0.907
9 | HCC-78 | 0.36 | 0.37 | 0.367 | 0.32 | 0.553 | 0.422 | 0.477 | 0.286 | 0.412 | 0.306 | 0.34 | 0.204 | 0.48 | 0.408 | 0.346 | 0.337
10 | NCI-H647 | 0.792 | 0.618 | 0.574 | 0.83 | 1.15 | 1.19 | 1.12 | 1.19 | 1.15 | 1.16 | 1.09 | 1.14 | 0.541 | 0.598 | 0.579 | 0.962
11 | HARA | 0.583 | 0.359 | 0.509 | 0.26 | 1.05 | 0.882 | 0.882 | 0.303 | 0.962 | 0.737 | 0.827 | 0.431 | 0.446 | 0.512 | 0.607 | 0.434
12 | NCI-H650 | 0.542 | 0.403 | 0.501 | 0.641 | 0.997 |  | 0.774 | 0.973 | 1.24 |  | 0.956 | 1.02 | 0.45 | 0.356 | 0.443 | 0.4
13 | NCI-H2085 | 0.773 | 0.582 | 0.851 | 0.412 | 0.877 | 1.07 | 0.986 | 0.879 | 1.03 | 0.934 | 1.01 | 0.837 | 0.805 | 0.673 | 0.752 | 0.669
14 | NCI-H2347 | 0.48 | 0.386 | 0.418 | 0.475 | 0.996 | 0.843 | 1.02 | 1.01 | 1.16 | 0.959 | 1.06 | 1.01 | 0.622 | 0.436 | 0.518 | 0.498
15 | NCI-H1944 | 0.372 | 0.349 | 0.393 | 0.328 | 1.07 | 1.06 | 1.01 | 0.583 | 0.79 | 0.782 | 0.735 | 0.554 | 0.565 | 0.448 | 0.501 | 0.492
16 | NCI-H1793 | 0.257 | 0.355 | 0.258 | 0.154 | 0.994 | 0.843 | 0.813 |  | 0.678 | 0.858 | 0.703 |  | 0.851 | 0.875 | 0.663 | 0.474
17 | NCI-H596 | 0.619 | 0.62 | 0.821 | 0.734 | 1.05 | 1.05 | 1.05 | 1.04 | 0.623 | 0.397 | 0.358 | 0.433 | 0.687 | 0.589 | 0.636 | 0.531
18 | NCI-H520 | 0.318 | 0.221 | 0.261 | 0.261 | 1.13 | 1.11 | 0.812 | 0.91 | 0.921 | 0.991 | 0.815 | 0.925 | 0.672 | 0.672 | 0.694 | 0.703
19 | EKVX | 0.711 | 0.663 | 0.679 |  | 1 | 0.898 | 0.915 | 0.25 | 0.912 | 0.785 | 0.888 | 0.239 | 0.732 | 0.725 | 0.704 | 0.383
20 | NCI-H358 | 0.839 | 0.94 | 0.634 | 0.195 | 0.725 | 0.717 | 0.617 | 0.328 | 0.911 | 0.78 | 0.827 | 0.365 | 0.704 | 0.567 | 0.658 | 0.233
